Molecular target: T1, 6-phosphofructo-2-kinase/fructose-2,6-bisphosphatase-3 (PFKFB3) (Homo sapiens, UniProt Q16875)
T1 construct: Recombinant full length human PFKFB3 protein purified from Sf9 baculoviral system
Assay: ADP-Glo kinase assay with recombinant PFKFB3 (ATP + F6P)
Assay type: biochemical

T1 sequence (Q16875 whole entry): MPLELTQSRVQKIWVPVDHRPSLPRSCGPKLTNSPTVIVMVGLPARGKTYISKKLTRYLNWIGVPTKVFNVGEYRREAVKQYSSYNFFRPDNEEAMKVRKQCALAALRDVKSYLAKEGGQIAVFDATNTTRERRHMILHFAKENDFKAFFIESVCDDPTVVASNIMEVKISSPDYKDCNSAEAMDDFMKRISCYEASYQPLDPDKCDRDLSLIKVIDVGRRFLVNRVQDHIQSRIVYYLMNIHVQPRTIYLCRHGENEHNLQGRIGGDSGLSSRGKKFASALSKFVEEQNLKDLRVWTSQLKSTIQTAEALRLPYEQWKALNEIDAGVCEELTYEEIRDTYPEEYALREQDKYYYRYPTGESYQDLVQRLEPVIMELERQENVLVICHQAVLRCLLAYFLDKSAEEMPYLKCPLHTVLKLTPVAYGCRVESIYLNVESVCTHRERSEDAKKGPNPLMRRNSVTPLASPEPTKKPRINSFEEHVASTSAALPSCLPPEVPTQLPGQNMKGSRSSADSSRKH

Structure (SMILES): Cc1noc(C)c1Cn1cc(C#N)c2cc(Oc3ccc(NC(=O)[C@@H]4CCCN4)cc3)ccc21 [AZ67]
- IC50: 18 nM

Reference: article PMC6691133, “Targeting PFKFB3 alleviates cerebral ischemia-reperfusion injury in mice” (Scientific Reports, 2019)
